Results published in US20150190360A1, “METHODS OF ADMINISTERING MONOMETHYL FUMARATE” (XenoPort, Inc., priority 2013, published 2015).

Legend:
[1] = test system: MOG35-55 mouse EAE model of MS
[2] = test system: imiquimod (IMQ) mouse model of psoriasis; type: in vivo, Balb/c mice
Method: In the imiquimod (IMQ) mouse model of psoriasis. Balb/c mice (10 males/group) received daily topical IMQ (5% cream) on shaved back and right ear for 5 days. Animals received oral active drug (90 mg-eq MMF/kg twice daily) or vehicle from Day −5 to Day 5. Erythema score was the primary outcome measure. […] The AUCmolar-MMF-GA:AUCmolar-MMF Ratio (%) in mice dosed with active drug at 90 mg/kg was 23.6%.

AUCmolar-MMF-GA:AUCmolar-MMF Ratio ([1]; female, C57BL/6, mouse, in vivo, 90 mg/kg): 23.6%
AUCmolar-MMF-GA:AUCmolar-MMF Ratio ([2]; male, Balb/c, mouse, in vivo, 90 mg/kg): 23.6%
SMILES: CCN(CC)C(=O)COC(=O)/C=C/C(=O)OC [Active drug, (N,N-diethylcarbamoyl)methyl methyl (2E)but-2-ene-1,4-dioate]
EAE clinical score (Day 29 and overall AUC) compared to vehicle ([1]; oral 90 mg-eq MMF/kg twice daily on Days 3 to 29, C57BL/6 mice, 5 point scale): significant reduction
Erythema score versus control ([2]; oral 90 mg-eq MMF/kg twice daily from Day -5 to Day 5, Balb/c mice, topical IMQ 5% cream): significant reduction
